According to the AptaBench aptamer set (doi:10.1093/nar/gkaf219):

How the values were obtained:
Details in all cases: 10 mM Tris-HCl, pH 7.4
[1] = test system: DNA aptamer or structured DNA CTTACGACGGGGTTCAGAGGGTCAACGGTGGTGTTGTCGTCGTAAG
[2] = test system: DNA aptamer or structured DNA CTTACGACGGGTGCCGTTGGTTCTAGGGTTAGGATGGCGTCGTAAG
[3] = test system: DNA aptamer or structured DNA CTTACGACGTGGGAAGTGTGGTTTGTGATCGGATCCGTGTCGTAAG
[4] = test system: DNA aptamer or structured DNA CTTACGACTTGTTCTGAGGGTCAACGGTGGTGTAGTTAGTCGTAAG
[5] = test system: DNA aptamer or structured DNA CTTACGACTAGGTGGGGGTCGGCCATGGGAGTGGGGTAGTCGTAAG
[6] = test system: DNA aptamer or structured DNA CTTACGACTAGGTGTGGGTCGGCTTTTTTTTAAGGGTAGTCGTAAG
[7] = test system: DNA aptamer or structured DNA CTTACGACTAGTTCCGGGTAGGGGTAGGTGTGGTTGTGGTCGTAAG
[8] = test system: DNA aptamer or structured DNA CTTACGACGAGCGCGTGTGGCCGGCGTGAGGGAGGTGAGTCGTAAG
[9] = test system: DNA aptamer or structured DNA CTTACGACGGGGGTGTGGCTAGGGGTGGCGCGGGATCCGTCGTAAG
[10] = test system: DNA aptamer or structured DNA CTTACGACGGGTGCTGTTGGTTCTAGGGTTAGGATGGCGTCGTAAG
[11] = test system: DNA aptamer or structured DNA CTTACGACGGGTGGGGAGGCCCTCTAGTTGGGAACGGTGTCGTAAG
[12] = test system: DNA aptamer or structured DNA CTTACGACAGGCGGTGTGGTGCTGGGAATAGGGATGGTGTCGTAAG
[13] = test system: DNA aptamer or structured DNA CTTACGACGCGGACGTTGTGGGGCGTGGCAGTCGGTGAGTCGTAAG
[14] = test system: DNA aptamer or structured DNA CTTACGACTAGTCGGTGGGGGGTAGGCGGAGGGTTGTTGTCGTAAG
[15] = test system: DNA aptamer or structured DNA CTTACGACTAGTGGAGTAGGGTCGGGTAGTGGGCCTCAGTCGTAAG
[16] = test system: DNA aptamer or structured DNA CTTACGACGTGTGCTGTTGGTTCTAGGGGTAGGATGGCGTCGTAAG
[17] = test system: DNA aptamer or structured DNA CTTACGACCGGGATCCTTTGGGACAACCTGGTGGGCATGTCGTAAG
[18] = test system: DNA aptamer or structured DNA CTTACGACCTGCTCTGAGGGTCAACGGTGGTGTAGTCGGTCGTAAG
[19] = test system: DNA aptamer or structured DNA CTTACGACTAGTTCGGATAAGGGGTAGGTGTGGTTGTGGTCGTAAG
[20] = test system: DNA aptamer or structured DNA CTTACGACACACGGTGTGGATGAGGTGGGCTAATAGGGGTCGTAAG
[21] = test system: DNA aptamer or structured DNA CTTACGACACAGGGCGTGGAGTGGCTGGGCTTCAAGGGGTCGTAAG
[22] = test system: DNA aptamer or structured DNA TTCAAATCTATGGTGCAGTGCGCAGGGACGGAGGTAAAACATGAGTTTTAGTCTAGATTTGAA
[23] = test system: DNA aptamer or structured DNA GGGACGACGGGACGGTAAGTGGCAGGTCGTTGGAATTTCTACTGTATCGTCGTCCC
[24] = test system: DNA aptamer or structured DNA GGGACGACGGAAGGGTGTGCTGCGGTTTGGCTTCTGGCGTCGTCCC
[25] = test system: DNA aptamer or structured DNA GGGACGACTGCTTGGGTAGGTCGGGCTTGGGTTCGGCGGTCGTCCC
[26] = test system: DNA aptamer or structured DNA TTCAAATCTGAGCAGCCTAGTTACTGACGGGTTTATAGTACTCGTATTGAGTCTAGATTTGAA
[27] = test system: DNA aptamer or structured DNA GGGACGACGCTAGGGGATCTTTTGGGGTTTGTATGGGCGTCGTCCC
[28] = test system: DNA aptamer or structured DNA TTCAAATCTGAGCAGCCTAGTTACTGACGGGTTTATAGTACTCGCATTGAGTCTAGATTTGAA
[29] = test system: DNA aptamer or structured DNA CTTACGACGGTGGTGTGGTACTGGGCTTGGGGGGTGTTGTCGTAAG
[30] = test system: DNA aptamer or structured DNA TTCAAATCTGGCGCAGGTAGGGGTGTAGGTGTGGGGGTAAGTCTAGATTTGAA
[31] = test system: DNA aptamer or structured DNA GGGACGACGGAGGTGTAGGGTTTAGGTAGTGGGTTGAAGTCGTCCC
[32] = test system: DNA aptamer or structured DNA CTTACGACTAGGTGTGGGTCGGCTCCGAATGGAGGGTAGTCGTAAG
[33] = test system: DNA aptamer or structured DNA GGGACGACTGCTTGGGTAGGTCGGGTTTGGGTTCGGCGGTCGTCCC
[34] = test system: DNA aptamer or structured DNA TTCAAATCTGAGCAGCCTAGTTACTGACGGGTTTATAGTACTCGCACTGAGTCTAGATTTGAA
[35] = test system: DNA aptamer or structured DNA TTCAAATCTGGTGCCCTTTCGCAGTCGGTTGGTAATGAGATCACTTTAGAGTCTAGATTTGAA
For binding call in this document: call rule not given here.

CC(=O)Nc1ccc(O)cc1
binds: binding call [9]
no binding: binding call [1] | binding call [2] | binding call [3] | binding call [4] | binding call [5] | binding call [6] | binding call [7] | binding call [8] | binding call [10] | binding call [11] | binding call [12] | binding call [13] | binding call [14] | binding call [15] | binding call [16] | binding call [17] | binding call [18] | binding call [19] | binding call [20]

CCN(CC)CCOC(=O)c1ccc(N)cc1
binds: binding call [21] | binding call [2] | binding call [3] | binding call [22] | binding call [7] | binding call [25] | binding call [9] | binding call [10] | binding call [27] | binding call [12] | binding call [16] | binding call [29] | binding call [33] | binding call [19]
no binding: binding call [1] | binding call [4] | binding call [5] | binding call [6] | binding call [23] | binding call [8] | binding call [24] | binding call [26] | binding call [11] | binding call [13] | binding call [14] | binding call [15] | binding call [17] | binding call [28] | binding call [30] | binding call [31] | binding call [32] | binding call [20] | binding call [34]

CC(C)Cc1ccc(C(C)C(=O)O)cc1 (centres undefined)
no binding: binding call [1] | binding call [21] | binding call [2] | binding call [3] | binding call [4] | binding call [5] | binding call [7] | binding call [9] | binding call [10] | binding call [12] | binding call [13] | binding call [14] | binding call [18] | binding call [32] | binding call [20]

COc1ccc2c3c1O[C@H]1C(=O)CC[C@@]4(O)[C@@H](C2)N(C)CC[C@]314
no binding: binding call [1] | binding call [21] | binding call [2] | binding call [3] | binding call [4] | binding call [5] | binding call [6] | binding call [7] | binding call [24] | binding call [25] | binding call [9] | binding call [10] | binding call [12] | binding call [13] | binding call [30] | binding call [31] | binding call [18] | binding call [32] | binding call [33] | binding call [19]

COC(=O)C(c1ccccc1)C1CCCCN1 (centres undefined)
binds: binding call [23] | binding call [25] | binding call [33]
no binding: binding call [21] | binding call [3] | binding call [4] | binding call [5] | binding call [35] | binding call [22] | binding call [7] | binding call [26] | binding call [9] | binding call [28] | binding call [19] | binding call [34]

c1ccc([C@H]2CN3CCSC3=N2)cc1
no binding: binding call [1] | binding call [21] | binding call [4] | binding call [5] | binding call [6] | binding call [12] | binding call [16] | binding call [29] | binding call [32] | binding call [19] | binding call [20]
binds: binding call [2] | binding call [3] | binding call [7] | binding call [9] | binding call [10] | binding call [14]

COC(=O)[C@@H]1C2CCC(C[C@@H]1OC(=O)c1ccccc1)N2C (some centres undefined)
270 nM: Kd [5]
no binding: binding call [23] | binding call [8] | binding call [24] | binding call [25] | binding call [26] | binding call [11] | binding call [15] | binding call [17] | binding call [28] | binding call [30] | binding call [34]
61 nM: Kd [7]
1030 nM: Kd [13]
57 nM: Kd [10]
189 nM: Kd [18]
binds: binding call [27] | binding call [31] | binding call [33]
22 nM: Kd [4]
266 nM: Kd [12]
122 nM: Kd [14]
123 nM: Kd [21]
185 nM: Kd [9]
235 nM: Kd [16]
313 nM: Kd [2]
335 nM: Kd [29]
352 nM: Kd [6]
69 nM: Kd [20]
168 nM: Kd [3]
192 nM: Kd [19]

CC(=O)Oc1ccc2c3c1O[C@H]1[C@@H](OC(C)=O)C=C[C@H]4[C@@H](C2)N(C)CC[C@@]341
no binding: binding call [1] | binding call [21] | binding call [2] | binding call [4] | binding call [5] | binding call [6] | binding call [7] | binding call [8] | binding call [24] | binding call [11] | binding call [12] | binding call [15] | binding call [17] | binding call [30] | binding call [31] | binding call [18] | binding call [33]
binds: binding call [9]
